Results published in patent US20210283056A1, “COMPOSITIONS FOR THERAPEUTICS PRESCREENING” (BARCODE DIAGNOSTICS LTD., priority 2018, published 2021).
Like-named read-outs stand apart in the source and are kept apart here.

Assays:
[1] = tested on: 4T1 derived cancers and metastases; conditions: cited from earlier work; for Effect on tumor growth: Kiew et al., 2012
Cells growing in culture = assay: Barcode quantification by Real Time PCR, dead vs. live cells; format: cell-based
Procedure: Cells growing in culture were treated with the liposome mixes and 48 hours after exposure the cell were subjected to viability assay. Dead cells from each study group (in triplicates) were first pelleted by centrifugation of supernatant and kept at −20 C until further analysis. Fresh medium supplemented with 10% Presto Blue Reagent (ThermoFisher Scientific) was added to cells and incubated at 37 C for about 90 minutes. 100 ul of each well was transferred to a black 96 wells plate and Fluorescence was recorded ([…]). Viability was calculated as Fluorescence of each sample relative to fluorescence of non-treated cells. Both mixes killed a similar amount of cells. Immediately following the viability assay, adherent cells were detached by addition of trypsin to the wells. Barcode analysis by Real Time PCR was performed as follows. The different barcodes were analyzed using a ThermoFisher Scientific Quantstudiol PCR System. The assay was run with TaqMan Fast Advanced master mix (ThermoFisher Scientific), primers (IDT) and a barcode specific probe labeled on the 5′ end with fluorescent FAM dye and on its 3′ end with a nonfluorescent quencher linked to a Minor Groove Binder (MGB) (ThermoFisher Scientific). […] After preparation of all dilutions, Real Time PCR was used to validate the standard curve. A reaction was run for all barcodes together. Reaction settings were as follow: 2 μL of sample was run in a Real Time Quantstudiol PCR instrument, using fast template protocol. Each sample was run in duplicate. Each barcode tested was compared to a standard curve run on the same plate. Each barcode reaction comprised at least 4 NTCs. In the Set Up, target (barcode tested), task (sample=Unknown/Standard/NTC), name and biological group were assigned to each sample. […] Analysis calculated average amount of barcode copies between replicate samples. This quantity was obtained for 2 μl of sample (volume of sample in RT-PCR reaction) and was adjusted to the final volume of the sample. The ratio of each barcode found in dead vs. live cells was calculated.

[2] = tested on: triple negative breast cancer tumors; assay: Barcode analysis in live and dead tumor cells after injection of liposome mixes; format: in vivo, BALB/c female mice; conditions: 5%
Text: FIGS. 1A-D: Detection of barcodes from liposome mixes with equal relative drug concentrations. […] Potency of the drugs was defined as the ratio of the amount of a barcode in dead cells to the amount of that barcode in live cells. (1D) A bar chart showing fluorescence from dead cells after treatment with two mixes of liposomes.
Each drug has its own specific effective therapeutic dose (ETD), and in order to test efficacy it is reasonable that each liposome mix (a mix of all three types of liposomes to be injected together) should have the same relative amount of each drug. That is, in order to determine an ideal dose, batches of mixed liposomes were generated in which all three drugs were present in a concentration that was either 5%, 1% or 0.1% of the effective therapeutic dose. Table 2 provides the amounts (in ul) of each liposome batch that were added to the mix in order to provide each total dose.
Cell from a triple negative breast cancer tumor were transplanted to the fat pad of BALB/c female mice and allowed to grow to form tumors in the mice. The mice were separated into 3 groups and then each group was injected with the 5%, 1% or 0.1% liposome mixes. 48 hours post injection the tumors were excised, and live/dead cell analysis was performed by FACS, followed by barcode analysis in live and dead cells separately.

[3] = first batch of liposomes (equal liposome number)

Structure (SMILES) | Effect on tumor growth ([1]; first couple of days of treatment) | Effect on tumor growth ([1]; later time points) | Effective at killing the cells (Cells growing in culture; [3]) | Effectiveness relative to the other two drugs ([2]; 1% or 0.1% mixes, patent regards it as likely artifact) [fold] | Potency (barcode in dead cells to live cells) ([2]; 1% or 0.1% of ETD liposome mixes, 48 hours post injection) | Sensitivity of 4T1 derived cancers and metastases ([1]; reported) | Resistance of 4T1 cells ([1]; reported) | Effective at killing the cells (Cells growing in culture; second batch of liposomes (equal relative drug concentration))
Nc1ccn([C@@H]2O[C@H](CO)[C@@H](O)C2(F)F)c(=O)n1 [Gemcitabine] | retards tumor growth | not be effective | effective | > 10 | most effective treatment | – | – | –
N.N.[Cl][Pt][Cl] [cisplatin] | – | – | – | – | – | highly sensitive | – | –
COc1cccc2c1C(=O)c1c(O)c3c(c(O)c1C2=O)C[C@@](O)(C(=O)CO)C[C@@H]3O[C@H]1C[C@H](N)[C@H](O)[C@H](C)O1 [doxorubicin] | – | – | effective | – | – | less so | become resistant | effective
